Results as given in patent US20160009693A1, “HERBICIDAL COMPOUNDS” (SYNGENTA LIMITED, priority 2013, published 2016).

Legend:
Type in all cases: in vivo
Conditions in all cases: applied at 1000 g/h, evaluated after 13 days
[1] = test system: Alopecurus myosuroides (ALOMY); assay: Herbicidal glasshouse test, pre-emergence, ALOMY
Solanum nigrum (SOLNI) [2] = assay: Herbicidal glasshouse test, post-emergence, SOLNI
[3] = test system: Echinochloa crus-galli (ECHCG); assay: Herbicidal glasshouse test, pre-emergence, ECHCG
How it was run: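 In this pre-emergence glasshouse test, ECHCG seeds sown in pots of standard soil were sprayed one day after sowing with the test material in acetone/water (50:50) containing 0.5% Tween 20. Plants were kept at 24/16° C., 14 hours light, 65% humidity, and watered twice daily. Percentage damage was rated after 13 days on a 1–5 scale.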

Solanum nigrum (SOLNI) [4] = assay: Herbicidal glasshouse test, pre-emergence, SOLNI
How it was run: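 This pre-emergence glasshouse herbicide test used Solanum nigrum sown in standard soil. One day after sowing, pots were sprayed with the compound in acetone/water (50:50) with 0.5% Tween 20. They were then grown at 24/16° C., with 14 hours light and 65% humidity, and watered twice daily. Percentage damage was scored after 13 days on a five point scale, where 5=80-100% and 1=0-19%.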

[5] = test system: Echinochloa crus-galli (ECHCG); assay: Herbicidal glasshouse test, post-emergence, ECHCG
How it was run: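 In this post-emergence glasshouse test, barnyard grass (ECHCG) was cultivated for 8 days under controlled conditions (24/16° C. day/night, 14 hours light, 65% humidity). It was then sprayed with an aqueous solution of the technical compound in acetone / water (50:50) with 0.5% Tween 20. Plants were kept under the same conditions and watered twice daily. After 13 days, percentage damage was rated on a five point scale (5=80-100%; 1=0-19%).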

[6] = test system: Ipomoea hederacea (IPOHE); assay: Herbicidal glasshouse test, pre-emergence, IPOHE
[7] = test system: Ipomoea hederacea (IPOHE); assay: Herbicidal glasshouse test, post-emergence, IPOHE
[8] = test system: Alopecurus myosuroides (ALOMY); assay: Herbicidal glasshouse test, post-emergence, ALOMY
Setaria faberi (SETFA) [9] = assay: Herbicidal glasshouse test, pre-emergence, SETFA
[10] = test system: Amaranthus retoflexus (AMARE); assay: Herbicidal glasshouse test, post-emergence, AMARE
How it was run: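 This post-emergence glasshouse test used AMARE plants raised in standard soil for 8 days under controlled conditions (24/16° C. day/night, 14 hours light, 65% humidity). Foliage was sprayed with formulated compound in acetone/water (50:50) containing 0.5% Tween 20. Plants were then watered twice daily, and after 13 days percentage damage was rated on a five point scale.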

Setaria faberi (SETFA) [11] = assay: Herbicidal glasshouse test, post-emergence, SETFA
How it was run: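 This post-emergence glasshouse herbicide test used potted Setaria faberi. Plants were cultivated for 8 days under controlled conditions (24/16° C. day/night, 14 hours light, 65% humidity) and then treated with an aqueous spray made from an acetone/water (50:50) solution containing 0.5% Tween 20. After 13 days of further growth with twice-daily watering, damage was rated on a five point scale (5=80-100%; 1=0-19%).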

[12] = test system: Amaranthus retoflexus (AMARE); assay: Herbicidal glasshouse test, pre-emergence, AMARE
How it was run: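 This pre-emergence glasshouse herbicide test used Amaranthus retoflexus sown in standard soil. After one day of cultivation, an aqueous spray made from the technical ingredient in 50:50 acetone/water with 0.5% Tween 20 was applied. Pots stayed at 24/16° C., 14 hours light, 65% humidity, with twice-daily watering. Damage was rated on a five point scale (1=0-19% up to 5=80-100%).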

Cn1nnnc1NC(=O)c1nn(C)c(=O)n(Cc2cc(Cl)nc(Cl)c2)c1=O [Compound 1.085]
5 (5=80-100%): PRE Application ALOMY, percentage damage (five point scale) [1] | POST Application SOLNI, percentage damage (five point scale) (Solanum nigrum (SOLNI) [2]) | PRE Application ECHCG, percentage damage (five point scale) [3] | PRE Application SOLNI, percentage damage (five point scale) (Solanum nigrum (SOLNI) [4]) | POST Application ECHCG, percentage damage (five point scale) [5] | PRE Application IPOHE, percentage damage (five point scale) [6] | POST Application IPOHE, percentage damage (five point scale) [7] | POST Application ALOMY, percentage damage (five point scale) [8] | POST Application AMARE, percentage damage (five point scale) [10] | PRE Application AMARE, percentage damage (five point scale) [12]
2 (2=20-39%): PRE Application SETFA, percentage damage (five point scale) (Setaria faberi (SETFA) [9]) | POST Application SETFA, percentage damage (five point scale) (Setaria faberi (SETFA) [11])

Cn1nnnc1NC(=O)c1nn(C)c(=O)n(Cc2ccc(C(F)F)cc2)c1=O [Compound 1.086]
2 (2=20-39%): PRE Application SETFA, percentage damage (five point scale) (Setaria faberi (SETFA) [9]) | POST Application SETFA, percentage damage (five point scale) (Setaria faberi (SETFA) [11])
5 (5=80-100%): PRE Application ALOMY, percentage damage (five point scale) [1] | POST Application SOLNI, percentage damage (five point scale) (Solanum nigrum (SOLNI) [2]) | PRE Application ECHCG, percentage damage (five point scale) [3] | PRE Application SOLNI, percentage damage (five point scale) (Solanum nigrum (SOLNI) [4]) | POST Application ECHCG, percentage damage (five point scale) [5] | PRE Application IPOHE, percentage damage (five point scale) [6] | POST Application IPOHE, percentage damage (five point scale) [7] | POST Application ALOMY, percentage damage (five point scale) [8] | POST Application AMARE, percentage damage (five point scale) [10] | PRE Application AMARE, percentage damage (five point scale) [12]

CC(C)CCn1c(=O)c(C(=O)Nc2nnnn2C)nn(C)c1=O [Compound 1.087]
5 (5=80-100%): PRE Application ALOMY, percentage damage (five point scale) [1] | POST Application SOLNI, percentage damage (five point scale) (Solanum nigrum (SOLNI) [2]) | PRE Application ECHCG, percentage damage (five point scale) [3] | PRE Application SOLNI, percentage damage (five point scale) (Solanum nigrum (SOLNI) [4]) | POST Application ECHCG, percentage damage (five point scale) [5] | PRE Application IPOHE, percentage damage (five point scale) [6] | POST Application IPOHE, percentage damage (five point scale) [7] | POST Application ALOMY, percentage damage (five point scale) [8] | PRE Application SETFA, percentage damage (five point scale) (Setaria faberi (SETFA) [9]) | POST Application AMARE, percentage damage (five point scale) [10] | POST Application SETFA, percentage damage (five point scale) (Setaria faberi (SETFA) [11]) | PRE Application AMARE, percentage damage (five point scale) [12]

COCCn1c(=O)c(C(=O)Nc2nnnn2C)nn(C)c1=O [Compound 1.088]
5 (5=80-100%): PRE Application ALOMY, percentage damage (five point scale) [1] | POST Application SOLNI, percentage damage (five point scale) (Solanum nigrum (SOLNI) [2]) | PRE Application ECHCG, percentage damage (five point scale) [3] | PRE Application SOLNI, percentage damage (five point scale) (Solanum nigrum (SOLNI) [4]) | POST Application ECHCG, percentage damage (five point scale) [5] | PRE Application IPOHE, percentage damage (five point scale) [6] | POST Application IPOHE, percentage damage (five point scale) [7] | POST Application ALOMY, percentage damage (five point scale) [8] | PRE Application SETFA, percentage damage (five point scale) (Setaria faberi (SETFA) [9]) | POST Application AMARE, percentage damage (five point scale) [10] | POST Application SETFA, percentage damage (five point scale) (Setaria faberi (SETFA) [11]) | PRE Application AMARE, percentage damage (five point scale) [12]

C#CCn1c(=O)c(C(=O)Nc2nnnn2C)nn(C)c1=O [Compound 1.089]
5 (5=80-100%): PRE Application ALOMY, percentage damage (five point scale) [1] | POST Application SOLNI, percentage damage (five point scale) (Solanum nigrum (SOLNI) [2]) | PRE Application ECHCG, percentage damage (five point scale) [3] | PRE Application SOLNI, percentage damage (five point scale) (Solanum nigrum (SOLNI) [4]) | POST Application ECHCG, percentage damage (five point scale) [5] | PRE Application IPOHE, percentage damage (five point scale) [6] | POST Application IPOHE, percentage damage (five point scale) [7] | POST Application ALOMY, percentage damage (five point scale) [8] | PRE Application SETFA, percentage damage (five point scale) (Setaria faberi (SETFA) [9]) | POST Application AMARE, percentage damage (five point scale) [10] | POST Application SETFA, percentage damage (five point scale) (Setaria faberi (SETFA) [11]) | PRE Application AMARE, percentage damage (five point scale) [12]
